This note sets out measurements from PubChem BioAssay AID248 (DTP/NCI, 2004).

Molecules are shown by their SMILES. Inconclusive results and toxic doses are left out.

The test relates to L1210 leukemia ip in BDF1 mice, survival T/C. The test can be described thus: NCI In Vivo Anticancer Drug Screen. Data for tumor model L1210 Leukemia (intraperitoneal) in B6D2F1 (BDF1) mice. As to conditions: endpoint: mean survival time, higher = longer survival. The essentials: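 Value reflects the ratio of survival in compound-treated mice to survival in vehicle-treated controls, with both groups carrying the same transplanted tumor.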

[1] abbreviates: dose: 100.0 mg/kg/injection, schedule: Q04DX003 (ip), vehicle: saline.
The mark [2] stands for this setting: dose: 100.0 mg/kg/injection, schedule: Q01DX001 (ip), vehicle: saline.
Where [3] appears, read: dose: 200.0 mg/kg/injection, schedule: Q01DX001 (ip), vehicle: saline.
The mark [4] stands for this setting: dose: 400.0 mg/kg/injection, schedule: Q01DX001 (ip), vehicle: saline.
Where [5] appears, read: dose: 100.0 mg/kg/injection, schedule: Q01DX009 (ip), vehicle: Klucel (hydroxypropylcellulose) (HPC).
[6] abbreviates: dose: 100.0 mg/kg/injection, schedule: Q04DX003 (ip), vehicle: Klucel (hydroxypropylcellulose) (HPC).
The mark [7] stands for this setting: dose: 200.0 mg/kg/injection, schedule: Q01DX009 (ip), vehicle: Klucel (hydroxypropylcellulose) (HPC).
Setting [8] is: dose: 200.0 mg/kg/injection, schedule: Q04DX003 (ip), vehicle: Klucel (hydroxypropylcellulose) (HPC).
The mark [9] stands for this setting: dose: 400.0 mg/kg/injection, schedule: Q01DX009 (ip), vehicle: Klucel (hydroxypropylcellulose) (HPC).
[10] abbreviates: dose: 400.0 mg/kg/injection, schedule: Q04DX003 (ip), vehicle: Klucel (hydroxypropylcellulose) (HPC).
Where [11] appears, read: dose: 12.5 mg/kg/injection, schedule: Q01DX009 (ip), vehicle: saline.
[12] abbreviates: dose: 25.0 mg/kg/injection, schedule: Q01DX009 (ip), vehicle: saline.
Setting [13] is: dose: 50.0 mg/kg/injection, schedule: Q01DX009 (ip), vehicle: saline.
The mark [14] stands for this setting: dose: 100.0 mg/kg/injection, schedule: Q01DX009 (ip), vehicle: saline.

For `ClC(Cl)=C(Cl)c1ccccc1`, the T/C is 93 % of control (dose: 25.6 mg/kg/injection, schedule: Q04DX002 (ip), vehicle: saline with Tween-80); 87 % of control (dose: 64.0 mg/kg/injection, schedule: Q04DX002 (ip), vehicle: saline with Tween-80); 98 % of control (dose: 100.0 mg/kg/injection, schedule: Q04DX003 (ip), vehicle: saline with Tween-80); 90 % of control (dose: 160.0 mg/kg/injection, schedule: Q04DX002 (ip), vehicle: saline with Tween-80); 93 % of control (dose: 200.0 mg/kg/injection, schedule: Q04DX003 (ip), vehicle: saline with Tween-80); 93 % of control (dose: 400.0 mg/kg/injection, schedule: Q04DX002 (ip), vehicle: saline with Tween-80). The T/C (dose: 400.0 mg/kg/injection, schedule: Q04DX003 (ip), vehicle: saline with Tween-80) was 93 % of control.

Turning to `O=[N+]([O-])c1ccc[nH]1`, under setting [1], the T/C was 98 % of control.

As for `N\C([S-])=N/N=C\C(=N/N=C(\N)[S-])C(O)C(O)C(O)CO.[Rh+2]` (stereo unspecified), the T/C was 106 % of control (dose: 100.0 mg/kg/injection, schedule: Q04DX003 (ip), vehicle: other); 93 % of control (dose: 200.0 mg/kg/injection, schedule: Q04DX003 (ip), vehicle: other); 98 % of control (dose: 400.0 mg/kg/injection, schedule: Q04DX003 (ip), vehicle: other).

On to `COc1ccc(/C=N\NC(=O)CCCC(=O)N/N=C/c2ccc(OC)c(O)c2)cc1O`, for which the T/C (dose: 50.0 mg/kg/injection, schedule: Q01DX001 (ip), vehicle: saline) was 100 % of control; the T/C under setting [2] is 100 % of control; the T/C under setting [3] is 100 % of control; the T/C under setting [4] is 103 % of control.

Take `CC(C)c1ccc(C(C2C(=O)CC(C)(C)CC2=O)C2C(=O)CC(C)(C)CC2=O)cc1`: the T/C is, setting by setting: under setting [2], 103 % of control; under setting [3], 109 % of control; under setting [4], 107 % of control.

In the case of `O=S(=O)(/N=C1C=C/C(=N/S(=O)(=O)c2ccccc2)C2C3C=CC(C3)C/12)c1ccccc1` (stereo unspecified), the T/C runs as follows: under setting [5], 109 % of control; under setting [6], 94 % of control; under setting [7], 103 % of control; under setting [8], 97 % of control; under setting [9], 95 % of control; under setting [10], 92 % of control.

As to `Cc1ccnc(NC(=O)Nc2cc(C)ccc2C)c1`, the T/C is, setting by setting: under setting [5], 94 % of control; under setting [7], 91 % of control; under setting [9], 92 % of control.

Turning to `COC(=O)C(c1ccccc1)C1CCCCN1` (stereo unspecified), the T/C (dose: 6.25 mg/kg/injection, schedule: Q01DX009 (ip), vehicle: saline) was 105 % of control; the T/C under setting [11] was 98 % of control; the T/C under setting [12] is 96 % of control; the T/C (dose: 25.0 mg/kg/injection, schedule: Q04DX003 (ip), vehicle: saline) is 97 % of control; the T/C under setting [13] is 100 % of control; the T/C (dose: 50.0 mg/kg/injection, schedule: Q04DX003 (ip), vehicle: saline) was 97 % of control. For the same molecule, the T/C under setting [1] was 108 % of control.

As to `O=C(Nc1cccc2ccccc12)c1ccccc1F`, the T/C under setting [5] was 95 % of control, the T/C under setting [7] was 92 % of control and the T/C under setting [9] was 104 % of control.

As for `C1=C(/c2ccccc2)CCCCCC/1`, the T/C (dose: 37.5 mg/kg/injection, schedule: Q01DX009 (ip), vehicle: saline) was 101 % of control; the T/C (dose: 75.0 mg/kg/injection, schedule: Q01DX001 (ip), vehicle: acetone) was 98 % of control; the T/C (dose: 75.0 mg/kg/injection, schedule: Q01DX009 (ip), vehicle: saline) was 90 % of control; the T/C (dose: 150.0 mg/kg/injection, schedule: Q01DX001 (ip), vehicle: acetone) is 93 % of control; the T/C (dose: 150.0 mg/kg/injection, schedule: Q01DX009 (ip), vehicle: saline) is 103 % of control; the T/C (dose: 300.0 mg/kg/injection, schedule: Q01DX001 (ip), vehicle: acetone) is 91 % of control.

Turning to `Cc1cccc(N2CCN(P(=S)(c3ccccc3)N3CCN(c4cccc(C)c4)CC3)CC2)c1`, the T/C is 89 % of control (dose: 100.0 mg/kg/injection, schedule: Q01DX001 (ip), vehicle: carboxymethylcellulose (CMC)); 95 % of control (dose: 200.0 mg/kg/injection, schedule: Q01DX001 (ip), vehicle: carboxymethylcellulose (CMC)); 86 % of control (dose: 400.0 mg/kg/injection, schedule: Q01DX001 (ip), vehicle: carboxymethylcellulose (CMC)).

With `C[Se]c1ncnc2c1c(C#N)cn2C1OC(CO)C(O)C1O` (stereo unspecified), the T/C (dose: 12.5 mg/kg/injection, schedule: Q01DX005 (ip), vehicle: saline) is 123 % of control; the T/C under setting [11] was 120 % of control; the T/C under setting [12] was 124 % of control; the T/C (dose: 50.0 mg/kg/injection, schedule: Q01DX005 (ip), vehicle: saline) is 120 % of control; the T/C under setting [13] is 94 % of control.

As to `CC/C(Cc1ccc(O)cc1)=N\N=C(N)N`, the T/C reads like this: (dose: 15.0 mg/kg/injection, schedule: Q01DX Z (ip), vehicle: methylcellulose (MC)) 97 % of control; (dose: 30.0 mg/kg/injection, schedule: Q01DX Z (ip), vehicle: methylcellulose (MC)) 94 % of control; (dose: 30.0 mg/kg/injection, schedule: Q01DX Z (oral), vehicle: methylcellulose (MC)) 92 % of control; (dose: 60.0 mg/kg/injection, schedule: Q01DX Z (ip), vehicle: methylcellulose (MC)) 97 % of control; (dose: 60.0 mg/kg/injection, schedule: Q01DX Z (oral), vehicle: methylcellulose (MC)) 98 % of control; (dose: 240.0 mg/kg/injection, schedule: Q01DX Z (oral), vehicle: methylcellulose (MC)) 93 % of control.

Turning to `CCCCCCOP(=O)(N1CC1)N1CC1`, the T/C is 102 % of control (dose: 0.62 mg/kg/injection, schedule: Q01DX001 (ip), vehicle: saline); 100 % of control (dose: 1.25 mg/kg/injection, schedule: Q01DX001 (ip), vehicle: saline); 103 % of control (dose: 2.5 mg/kg/injection, schedule: Q01DX001 (ip), vehicle: saline); 103 % of control (dose: 5.0 mg/kg/injection, schedule: Q01DX001 (ip), vehicle: saline); 152 % of control (dose: 10.0 mg/kg/injection, schedule: Q01DX001 (ip), vehicle: saline); 201 % of control (dose: 20.0 mg/kg/injection, schedule: Q01DX001 (ip), vehicle: saline). The T/C (dose: 40.0 mg/kg/injection, schedule: Q01DX001 (ip), vehicle: saline) is 287 % of control; the T/C (dose: 75.0 mg/kg/injection, schedule: Q01DX001 (ip), vehicle: saline) was 267 % of control; the T/C (dose: 150.0 mg/kg/injection, schedule: Q01DX001 (ip), vehicle: saline) was 247 % of control.

As for `C/C=C/C(O)(C(=O)OCC)C1CCCCC1` (stereo unspecified), the T/C is 107 % of control (dose: 100.0 mg/kg/injection, schedule: Q01DX001 (ip), vehicle: other); 98 % of control (dose: 200.0 mg/kg/injection, schedule: Q01DX001 (ip), vehicle: other); 102 % of control (dose: 400.0 mg/kg/injection, schedule: Q01DX001 (ip), vehicle: other).

As for `CC(C)=CC(=O)CC(O)(C(F)(F)F)C(F)(F)Cl` (stereo unspecified), the T/C was 92 % of control under setting [13] and 100 % of control under setting [14].

On to `O=[N+]([O-])c1cc(Cl)cc(Br)c1O`, for which the T/C (dose: 12.5 mg/kg/injection, schedule: Q04DX003 (ip), vehicle: Klucel (hydroxypropylcellulose) (HPC)) is 100 % of control; the T/C (dose: 25.0 mg/kg/injection, schedule: Q04DX003 (ip), vehicle: Klucel (hydroxypropylcellulose) (HPC)) is 102 % of control; the T/C (dose: 50.0 mg/kg/injection, schedule: Q04DX003 (ip), vehicle: Klucel (hydroxypropylcellulose) (HPC)) is 105 % of control; the T/C under setting [6] is 103 % of control.

For `O=[N+]([O-])c1cccc(N=Cc2ccc3c(c2)OCO3)c1`, the T/C is 96 % of control under setting [14]; 93 % of control (dose: 200.0 mg/kg/injection, schedule: Q01DX009 (ip), vehicle: saline); 100 % of control (dose: 400.0 mg/kg/injection, schedule: Q01DX009 (ip), vehicle: saline).

Turning to `COc1cc(OC)c2c(C)c(C#N)oc2c1`, the T/C is 97 % of control under setting [6], 97 % of control under setting [8] and 98 % of control under setting [10].
